Results from patent US20210139477A1, “ALK5 INHIBITORS, CONJUGATES, AND USES THEREOF” (Silverback Therapeutics, Inc., priority 2019, published 2021).

System: TGFb/SMAD Signaling Pathway SBE reporter cell line
Experiment: TGFb reporter assay (TGFb/SMAD Signaling Pathway SBE luciferase reporter cell line)
Type: cell-based
Conditions: 5-6 h preincubation, then TGFb, 18 h, luciferase luminescence
Procedure: TGFβ/SMAD Signaling Pathway SBE reporter cell line was obtained from BPS Bioscience. Cells were passed, expanded, and stored in liquid nitrogen as per the supplier's instructions with the exception that growth media is changed to DMEM-C with Geneticin (DMEM supplemented with 10% fetal bovine serum, 1×NEAA, 1 mM Pyruvate, 2 mM glutamine, 50 μg/mL penicillin, 50 U/mL streptomycin and 400 μg/mL of Geneticin). The assay media was MEM supplemented with 0.5% fetal bovine serum, 1×NEAA, 1 mM Pyruvate, 50 μg/mL penicillin and 50 U/mL streptomycin.
TGFb/SMAD Signaling Pathway SBE reporter cell line was obtained from BPS Bioscience. Cells were passed/expanded/stored in liquid nitrogen per supplier's instruction with the exception that growth media was changed to DMEM-C with Geneticin (DMEM supplemented with 10% fetal bovine serum, IX NEAA, 1 mM Pyruvate, 2 mM glutamine, 50 μg/mL penicillin, 50 U/mL streptomycin and 400 ug/mL of Geneticin). The assay media was MEM supplemented with 0.5% fetal bovine serum, IX NEAA, 1 mM Pyruvate, 50 μg/mL penicillin and 50 U/mL streptomycin.
Reporter cells were harvested from the tissue culture flasks by incubation in small quantity of Versene at room temperature for three to five minutes after the media in the flask was removed and cells rinsed with PBS. Cells were counted and diluted in the assay media at 0.8×10^6 cells/mL then 50 uL/well were added to 96-well assay plate. Test samples (at desired concentrations diluted in assay media) were added to assay plate containing the 50 uL/well of cells (or media only), 50 uL per well, and incubated for 5-6 hours at 37° C. in a 5% CO2 humidified incubator. After that time, 15 uL of TGFb diluted to 12.5 ng/mL in the assay media was added to the plate. Controls included TGFb titration (from 25 to 0 ng/mL) without inhibitors, and media only (without cells, inhibitor or TGFb). Plates were incubated at 37° C. in a […] humidified incubator for 18 h. Luciferase substrate solution was subsequently added at 75 uL per well, incubated in dark with shaking at room temperature for 10 min, and luminescence was measured using a luminometer.

SMILES	EC50
Cc1cccc(-c2nc(CNCc3ccccc3)[nH]c2-c2ccc3ncnn3c2)n1 [Compound 1, 1-(5-([1,2,4]triazolo[1,5-a]pyridin-6-yl)-4-(6-methylpyridin-2-yl)-1H-imidazol-2-yl)-N-benzylmethanamine]	0.1 to 10 nM
Cc1cccc(-c2nc(CNCc3cccc(Cl)c3)[nH]c2-c2ccc3ncnn3c2)n1 [Compound 2]	10 to 100 nM
Cc1cccc(-c2nc(CNCc3ccc(Cl)cc3)[nH]c2-c2ccc3ncnn3c2)n1 [Compound 3]	10 to 100 nM
Cc1cccc(-c2nc(CNCc3ccc(Cl)c(Cl)c3)[nH]c2-c2ccc3ncnn3c2)n1 [Compound 4]	100 to 1000 nM
Cc1cccc(-c2nc(CNCc3cc(Cl)ccc3Cl)[nH]c2-c2ccc3ncnn3c2)n1 [Compound 5]	10 to 100 nM
Cc1cccc(-c2nc(CNCc3c(Cl)cccc3Cl)[nH]c2-c2ccc3ncnn3c2)n1 [Compound 6]	0.1 to 10 nM
COc1cccc(CNCc2nc(-c3cccc(C)n3)c(-c3ccc4ncnn4c3)[nH]2)c1 [Compound 7]	0.1 to 10 nM
COc1ccc(CNCc2nc(-c3cccc(C)n3)c(-c3ccc4ncnn4c3)[nH]2)cc1 [Compound 8]	100 to 1000 nM
COc1ccc(OC)c(CNCc2nc(-c3cccc(C)n3)c(-c3ccc4ncnn4c3)[nH]2)c1 [Compound 9]	10 to 100 nM
Cc1cccc(-c2nc(CN[C@H](C)c3ccccc3)[nH]c2-c2ccc3ncnn3c2)n1 [Compound 11]	10 to 100 nM
Cc1cccc(-c2nc(CNC(c3ccccc3)c3ccccc3)[nH]c2-c2ccc3ncnn3c2)n1 [Compound 13]	0.1 to 10 nM
Cc1cccc(-c2nc(CN[C@@H](CO)c3ccccc3)[nH]c2-c2ccc3ncnn3c2)n1 [Compound 14]	10 to 100 nM
COC(=O)[C@H](NCc1nc(-c2cccc(C)n2)c(-c2ccc3ncnn3c2)[nH]1)c1ccccc1 [Compound 15]	100 to 1000 nM
COc1ccccc1CNCc1nc(-c2cccc(C)n2)c(-c2ccc3ncnn3c2)[nH]1 [Compound 17]	10 to 100 nM
Cc1cccc(-c2nc(CNCc3ccccc3F)[nH]c2-c2ccc3ncnn3c2)n1 [Compound 18]	0.1 to 10 nM
Cc1cccc(-c2nc(CNCc3ccccc3C#N)[nH]c2-c2ccc3ncnn3c2)n1 [Compound 20]	100 to 1000 nM
Cc1cccc(-c2nc(CNCc3ccccc3C)[nH]c2-c2ccc3ncnn3c2)n1 [Compound 21]	0.1 to 10 nM
CCc1ccccc1CNCc1nc(-c2cccc(C)n2)c(-c2ccc3ncnn3c2)[nH]1 [Compound 22]	0.1 to 10 nM
Cc1cccc(-c2nc(CNCc3ccccc3C(C)C)[nH]c2-c2ccc3ncnn3c2)n1 [Compound 23]	0.1 to 10 nM

SMILES	EC50
Cc1cccc(-c2nc(CNCc3ccccc3-c3ccccc3)[nH]c2-c2ccc3ncnn3c2)n1 [Compound 24]	0.1 to 10 nM
Cc1cccc(-c2nc(CNCc3ccccc3N(C)C)[nH]c2-c2ccc3ncnn3c2)n1 [Compound 25]	0.1 to 10 nM
Cc1cccc(-c2nc(CNCc3ccccc3OC(F)(F)F)[nH]c2-c2ccc3ncnn3c2)n1 [Compound 26]	0.1 to 10 nM
Cc1cccc(-c2nc(CNCc3ccccc3CC(F)(F)F)[nH]c2-c2ccc3ncnn3c2)n1 [Compound 27]	0.1 to 10 nM
Cc1cccc(-c2nc(CNCc3ccccc3C(O)C(F)(F)F)[nH]c2-c2ccc3ncnn3c2)n1 (centres unmarked) [Compound 28]	0.1 to 10 nM
Cc1cccc(-c2nc(CNCc3ccccc3-c3ccccc3CNC(=O)OC(C)(C)C)[nH]c2-c2ccc3ncnn3c2)n1 [Compound 29]	100 to 1000 nM
Cc1cccc(-c2nc(CNCc3ccccc3-c3cccc(CNC(=O)OC(C)(C)C)c3)[nH]c2-c2ccc3ncnn3c2)n1 [Compound 30]	100 to 1000 nM
Cc1cccc(-c2nc(CNCc3ccccc3-c3ccc(CNC(=O)OC(C)(C)C)cc3)[nH]c2-c2ccc3ncnn3c2)n1 [Compound 31]	100 to 1000 nM
Cc1cccc(-c2nc(CNCc3ccccc3-c3ccccc3CN)[nH]c2-c2ccc3ncnn3c2)n1 [Compound 32]	100 to 1000 nM
Cc1cccc(-c2nc(CNCc3ccccc3-c3cccc(CN)c3)[nH]c2-c2ccc3ncnn3c2)n1 [Compound 33]	100 to 1000 nM
Cc1cccc(-c2nc(CNCc3ccccc3-c3ccc(CN)cc3)[nH]c2-c2ccc3ncnn3c2)n1 [Compound 34]	100 to 1000 nM
Cc1cccc(-c2nc(CNCc3ccccc3-c3ccc(F)cc3)[nH]c2-c2ccc3ncnn3c2)n1 [Compound 35]	0.1 to 10 nM
Cc1cccc(-c2nc(CNCc3ccccc3-c3ccc(F)c(F)c3)[nH]c2-c2ccc3ncnn3c2)n1 [Compound 36]	10 to 100 nM
Cc1cccc(-c2nc(CNCc3ccccc3-c3cccc(F)c3)[nH]c2-c2ccc3ncnn3c2)n1 [Compound 37]	10 to 100 nM
Cc1cccc(-c2nc(CNCc3ccccc3-c3ccccc3F)[nH]c2-c2ccc3ncnn3c2)n1 [Compound 38]	0.1 to 10 nM
Cc1cccc(-c2nc(CNCc3ccccc3-c3cc(F)cc(F)c3)[nH]c2-c2ccc3ncnn3c2)n1 [Compound 39]	10 to 100 nM
Cc1cccc(-c2nc(CNCc3ccccc3-c3ccccn3)[nH]c2-c2ccc3ncnn3c2)n1 [Compound 40]	10 to 100 nM
Cc1cccc(-c2nc(CNCc3ccccc3-c3cccnc3)[nH]c2-c2ccc3ncnn3c2)n1 [Compound 41]	0.1 to 10 nM
Cc1cccc(-c2nc(CNCc3ccccc3-c3ccncc3)[nH]c2-c2ccc3ncnn3c2)n1 [Compound 42]	10 to 100 nM

Further lines, results first:

EC50	SMILES
100 to 1000 nM	Cc1cccc(-c2nc(CNCc3ccccc3C3CCCCC3)[nH]c2-c2ccc3ncnn3c2)n1 [Compound 43]
10 to 100 nM	Cc1cccc(-c2nc(CNCc3ccccc3C3CCCC3)[nH]c2-c2ccc3ncnn3c2)n1 [Compound 44]
0.1 to 10 nM	Cc1cccc(-c2nc(CNCc3cccc(C)c3C)[nH]c2-c2ccc3ncnn3c2)n1 [Compound 45]
0.1 to 10 nM	COc1cccc(CNCc2nc(-c3cccc(C)n3)c(-c3ccc4ncnn4c3)[nH]2)c1C [Compound 46]
0.1 to 10 nM	Cc1cccc(-c2nc(CNCc3cccc(Cl)c3C)[nH]c2-c2ccc3ncnn3c2)n1 [Compound 47]
10 to 100 nM	Cc1cccc(-c2nc(CNCc3cccc(C)c3-c3ccccc3)[nH]c2-c2ccc3ncnn3c2)n1 [Compound 48]
10 to 100 nM	Cc1cccc(-c2nc(CNCc3cccc(-c4ccccc4)c3C)[nH]c2-c2ccc3ncnn3c2)n1 [Compound 49]
10 to 100 nM	Cc1cccc(CNCc2nc(-c3cccc(C)n3)c(-c3ccc4ncnn4c3)[nH]2)c1 [Compound 50]
100 to 1000 nM	Cc1cccc(-c2nc(CNCc3cccc(-c4ccccc4)c3)[nH]c2-c2ccc3ncnn3c2)n1 [Compound 51]
0.1 to 10 nM	Cc1cccc(-c2nc(CNCCc3ccccc3)[nH]c2-c2ccc3ncnn3c2)n1 [Compound 52]
0.1 to 10 nM	Cc1cccc(-c2nc(CNCc3ccccc3Oc3ccccc3)[nH]c2-c2ccc3ncnn3c2)n1 [Compound 53]
0.1 to 10 nM	Cc1cccc(-c2nc(CNCc3ccccc3Oc3cccnc3)[nH]c2-c2ccc3ncnn3c2)n1 [Compound 54]
1000 to 10000 nM	Cc1cccc(-c2nc(CNCc3ccccc3Oc3ccncc3)[nH]c2-c2ccc3ncnn3c2)n1 [Compound 55]
10 to 100 nM	Cc1cccc(-c2nc(CNCc3cccc(Oc4ccccc4)c3)[nH]c2-c2ccc3ncnn3c2)n1 [Compound 56]
10 to 100 nM	Cc1cccc(-c2nc(CNCc3cccc(Oc4cccnc4)c3)[nH]c2-c2ccc3ncnn3c2)n1 [Compound 57]
10 to 100 nM	Cc1cccc(-c2nc(CNCc3cccc(Oc4ccncc4)c3)[nH]c2-c2ccc3ncnn3c2)n1 [Compound 58]
0.1 to 10 nM	Cc1cccc(-c2nc(CNCCc3ccccc3F)[nH]c2-c2ccc3ncnn3c2)n1 [Compound 59]
0.1 to 10 nM	Cc1cccc(-c2nc(CNCCc3c(F)cccc3F)[nH]c2-c2ccc3ncnn3c2)n1 [Compound 60]
0.1 to 10 nM	Cc1cccc(-c2nc(CNCCc3cccc(F)c3)[nH]c2-c2ccc3ncnn3c2)n1 [Compound 61]
0.1 to 10 nM	Cc1cccc(-c2nc(CNCCc3ccc(F)cc3F)[nH]c2-c2ccc3ncnn3c2)n1 [Compound 63]
0.1 to 10 nM	Cc1cccc(-c2nc(CNCCCc3ccccc3)[nH]c2-c2ccc3ncnn3c2)n1 [Compound 64]
0.1 to 10 nM	Cc1cccc(-c2nc(CNCCOc3ccccc3)[nH]c2-c2ccc3ncnn3c2)n1 [Compound 65]
0.1 to 10 nM	Cc1cccc(-c2nc(CNCCNc3ccccc3)[nH]c2-c2ccc3ncnn3c2)n1 [Compound 66]
0.1 to 10 nM	Cc1cccc(-c2nc(CNCCN(C)c3ccccc3)[nH]c2-c2ccc3ncnn3c2)n1 [Compound 67]
10 to 100 nM	Cc1cccc(-c2nc(CNCc3ccccc3-c3ccccc3)[nH]c2-c2ccc3ncccc3n2)n1 [Compound 68]
100 to 1000 nM	Cc1cccc(-c2nc(CNCc3ccccc3-c3ccccc3)[nH]c2-c2ccnc3ccccc23)n1 [Compound 69]
100 to 1000 nM	Cc1cccc(-c2nc(CNCc3ccccc3-c3ccccc3)[nH]c2-c2ccc3c(c2)OCO3)n1 [Compound 71]
